Reference: PubChem BioAssay (NCI)
“And” between values parts separate entries of the source, which are not always exact repeats. Equal values may be shown once.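 1) Cells in 96-well plates. 2) Compound, 48 h, 5 concentrations. 3) Linear interpolation between surrounding doses. 4) Unreached endpoint = highest concentration. Here, GI50 denotes the concentration required for 50% inhibition of growth. The concentration for full growth arrest is given as TGI.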

What was measured:
Assay in all cases: NCI tumour cell line growth inhibition, 48 h
786-0 renal = test system: 786-0 renal
A498 renal = test system: A498 renal
A549 NSCLC = test system: A549 NSCLC
ACHN renal = test system: ACHN renal
BT-549 breast = test system: BT-549 breast
CAKI-1 renal = test system: CAKI-1 renal
CCRF-CEM leukemia = test system: CCRF-CEM leukemia
COLO 205 colon = test system: COLO 205 colon
DLD-1 colon = test system: DLD-1 colon
DMS 114 small cell lung = test system: DMS 114 small cell lung
DMS 273 small cell lung = test system: DMS 273 small cell lung
DU-145 prostate = test system: DU-145 prostate
EKVX NSCLC = test system: EKVX NSCLC
HCC-2998 colon = test system: HCC-2998 colon
HCT-116 colon = test system: HCT-116 colon
HCT-15 colon = test system: HCT-15 colon
HL-60(TB) leukemia = test system: HL-60(TB) leukemia
HOP-18 NSCLC = test system: HOP-18 NSCLC
HOP-62 NSCLC = test system: HOP-62 NSCLC
HOP-92 NSCLC = test system: HOP-92 NSCLC
HS 578T breast = test system: HS 578T breast
HT29 colon = test system: HT29 colon
IGROV1 ovarian = test system: IGROV1 ovarian
K-562 leukemia = test system: K-562 leukemia
KM12 colon = test system: KM12 colon
KM20L2 colon = test system: KM20L2 colon
LOX IMVI melanoma = test system: LOX IMVI melanoma
LXFL 529 NSCLC = test system: LXFL 529 NSCLC
M14 melanoma = test system: M14 melanoma
M19-MEL melanoma = test system: M19-MEL melanoma
MALME-3M melanoma = test system: MALME-3M melanoma
MCF7 breast = test system: MCF7 breast
MDA-MB-231 breast = test system: MDA-MB-231 breast
MDA-MB-435 = test system: MDA-MB-435
MDA-N = test system: MDA-N
MOLT-4 leukemia = test system: MOLT-4 leukemia
NCI-H226 lung = test system: NCI-H226 lung
NCI-H23 lung = test system: NCI-H23 lung
NCI-H460 lung = test system: NCI-H460 lung
NCI-H522 lung = test system: NCI-H522 lung
NCI/ADR-RES ovarian = test system: NCI/ADR-RES ovarian
OVCAR-3 ovarian = test system: OVCAR-3 ovarian
OVCAR-4 ovarian = test system: OVCAR-4 ovarian
OVCAR-5 ovarian = test system: OVCAR-5 ovarian
OVCAR-8 ovarian = test system: OVCAR-8 ovarian
PC-3 prostate = test system: PC-3 prostate
RPMI-8226 leukemia = test system: RPMI-8226 leukemia
RXF 393 renal = test system: RXF 393 renal
RXF-631 renal = test system: RXF-631 renal
SF-268 CNS = test system: SF-268 CNS
SF-295 CNS = test system: SF-295 CNS
SF-539 CNS = test system: SF-539 CNS
SK-MEL-2 melanoma = test system: SK-MEL-2 melanoma
SK-MEL-28 melanoma = test system: SK-MEL-28 melanoma
SK-MEL-5 melanoma = test system: SK-MEL-5 melanoma
SK-OV-3 ovarian = test system: SK-OV-3 ovarian
SN12C renal = test system: SN12C renal
SNB-19 CNS = test system: SNB-19 CNS
SNB-75 CNS = test system: SNB-75 CNS
SNB-78 CNS = test system: SNB-78 CNS
SR leukemia = test system: SR leukemia
SW-620 colon = test system: SW-620 colon
T-47D breast = test system: T-47D breast
TK-10 renal = test system: TK-10 renal
U251 CNS = test system: U251 CNS
UACC-257 melanoma = test system: UACC-257 melanoma
UACC-62 melanoma = test system: UACC-62 melanoma
UO-31 renal = test system: UO-31 renal
XF 498 CNS = test system: XF 498 CNS
P388 leukemia = test system: P388 leukemia
P388/ADR leukemia = test system: P388/ADR leukemia
SN12K1 renal = test system: SN12K1 renal

CN(C)CC1CCCCCCCCCC(CN(C)C)C1=O (configuration not stated)
TGI (786-0 renal): > 40.6 µM
TGI (A498 renal): > 46.2 µM
TGI (A549 NSCLC): > 51.5 µM
TGI (ACHN renal): > 46.3 µM
TGI (BT-549 breast): 18.7 µM
TGI (CAKI-1 renal): > 50 µM
TGI (CCRF-CEM leukemia): > 26.4 µM
TGI (COLO 205 colon): > 100 µM
TGI (DLD-1 colon): > 100 µM
TGI (DMS 114 small cell lung): > 100 µM
TGI (DMS 273 small cell lung): > 100 µM
TGI (DU-145 prostate): 31.1 µM
TGI (EKVX NSCLC): > 54.2 µM
TGI (HCC-2998 colon): > 100 µM
TGI (HCT-116 colon): > 64.5 µM
TGI (HCT-15 colon): > 61.2 µM
TGI (HL-60(TB) leukemia): > 100 µM
TGI (HOP-18 NSCLC): > 100 µM
TGI (HOP-62 NSCLC): > 62.4 µM
TGI (HOP-92 NSCLC): > 48.4 µM
TGI (HS 578T breast): 24.1 µM
TGI (HT29 colon): > 43.8 µM
TGI (IGROV1 ovarian): > 55.8 µM
TGI (K-562 leukemia): > 38.5 µM
TGI (KM12 colon): > 39.4 µM
TGI (KM20L2 colon): > 100 µM
TGI (LOX IMVI melanoma): > 37.2 µM
TGI (LXFL 529 NSCLC): > 100 µM
TGI (M14 melanoma): > 49.1 µM
TGI (M19-MEL melanoma): > 100 µM
TGI (MALME-3M melanoma): > 65.4 µM
TGI (MCF7 breast): 24.3 µM
TGI (MDA-MB-231 breast): 84.6 µM
TGI (MDA-MB-435): 19.7 µM
TGI (MDA-N): 30.9 µM
TGI (MOLT-4 leukemia): > 25.7 µM
TGI (NCI-H226 lung): > 60.3 µM
TGI (NCI-H23 lung): > 50.5 µM
TGI (NCI-H460 lung): > 57 µM
TGI (NCI-H522 lung): 10.5 µM
TGI (NCI/ADR-RES ovarian): 52.1 µM
TGI (OVCAR-3 ovarian): > 40.1 µM
TGI (OVCAR-4 ovarian): > 41.2 µM
TGI (OVCAR-5 ovarian): > 63.6 µM
TGI (OVCAR-8 ovarian): > 54.8 µM
TGI (PC-3 prostate): 19.4 µM
TGI (RPMI-8226 leukemia): > 100 µM
TGI (RXF 393 renal): > 42.4 µM
TGI (RXF-631 renal): > 100 µM
TGI (SF-268 CNS): > 53.9 µM
TGI (SF-295 CNS): > 59.7 µM
TGI (SF-539 CNS): > 47 µM
TGI (SK-MEL-2 melanoma): > 67.4 µM
TGI (SK-MEL-28 melanoma): > 54.4 µM
TGI (SK-MEL-5 melanoma): 41.2 µM
TGI (SK-OV-3 ovarian): > 45.6 µM
TGI (SN12C renal): > 53.5 µM
TGI (SNB-19 CNS): > 55.6 µM
TGI (SNB-75 CNS): > 44.9 µM
TGI (SNB-78 CNS): > 100 µM
TGI (SR leukemia): > 100 µM
TGI (SW-620 colon): > 45.5 µM
TGI (T-47D breast): 53 µM
TGI (TK-10 renal): > 53.7 µM
TGI (U251 CNS): > 54.5 µM
TGI (UACC-257 melanoma): > 48.1 µM
TGI (UACC-62 melanoma): > 44.1 µM
TGI (UO-31 renal): > 53.3 µM
TGI (XF 498 CNS): > 100 µM

O=S1(=O)CS(=O)(=O)OCCO1
GI50 (786-0 renal): 35.6 µM
TGI (786-0 renal): 159 µM
TGI (A498 renal): 154 µM
GI50 (A549 NSCLC): > 82.6 µM
TGI (A549 NSCLC): 186 µM
GI50 (ACHN renal): 36.3 µM
TGI (ACHN renal): 56.5 µM
GI50 (BT-549 breast): 69.2 µM
TGI (BT-549 breast): 156 µM
GI50 (CAKI-1 renal): 33.2 µM
TGI (CAKI-1 renal): > 92.9 µM and 143 µM
TGI (CCRF-CEM leukemia): 252 µM
TGI (COLO 205 colon): 157 µM
TGI (DLD-1 colon): 164 µM
TGI (DMS 114 small cell lung): 108 µM
TGI (DMS 273 small cell lung): 215 µM
TGI (DU-145 prostate): 178 µM
TGI (EKVX NSCLC): 273 µM
GI50 (HCC-2998 colon): 68.1 µM
TGI (HCC-2998 colon): 106 µM
GI50 (HCT-116 colon): > 74.6 µM
TGI (HCT-116 colon): 85.3 µM
GI50 (HCT-15 colon): > 85.6 µM
TGI (HCT-15 colon): 128 µM
GI50 (HL-60(TB) leukemia): 23.9 µM
TGI (HL-60(TB) leukemia): 93.1 µM and 61.8 µM
TGI (HOP-18 NSCLC): 436 µM
GI50 (HOP-62 NSCLC): > 85.2 µM
TGI (HOP-62 NSCLC): 50.9 µM
GI50 (HOP-92 NSCLC): > 49.7 µM
TGI (HOP-92 NSCLC): 112 µM
TGI (HS 578T breast): 176 µM
TGI (HT29 colon): 347 µM
GI50 (IGROV1 ovarian): > 69.7 µM
TGI (IGROV1 ovarian): 144 µM
TGI (K-562 leukemia): 423 µM
TGI (KM12 colon): 121 µM
TGI (KM20L2 colon): 331 µM
GI50 (LOX IMVI melanoma): 29.7 µM
TGI (LOX IMVI melanoma): 71.3 µM
GI50 (M14 melanoma): > 78.5 µM
TGI (M14 melanoma): 162 µM
TGI (M19-MEL melanoma): 126 µM
TGI (MALME-3M melanoma): 214 µM
GI50 (MCF7 breast): 39.1 µM
TGI (MCF7 breast): 348 µM
TGI (MDA-MB-231 breast): 352 µM
GI50 (MDA-MB-435): 72.9 µM
TGI (MDA-MB-435): 94.4 µM
TGI (MDA-N): 80.3 µM
GI50 (MOLT-4 leukemia): 18.4 µM
TGI (MOLT-4 leukemia): 100 µM
GI50 (NCI-H226 lung): > 93.7 µM
TGI (NCI-H226 lung): 172 µM
TGI (NCI-H23 lung): > 81.5 µM and 113 µM
GI50 (NCI-H460 lung): 18.1 µM
TGI (NCI-H460 lung): 69.9 µM
GI50 (NCI-H522 lung): > 96.4 µM
TGI (NCI-H522 lung): 140 µM
GI50 (NCI/ADR-RES ovarian): 25.7 µM
TGI (NCI/ADR-RES ovarian): 89.6 µM and 270 µM
TGI (OVCAR-3 ovarian): 87.5 µM
TGI (OVCAR-4 ovarian): 130 µM
TGI (OVCAR-5 ovarian): 269 µM
GI50 (OVCAR-8 ovarian): > 77.7 µM
TGI (OVCAR-8 ovarian): 235 µM
TGI (P388 leukemia): 119 µM
TGI (P388/ADR leukemia): 91.8 µM
TGI (PC-3 prostate): 665 µM
TGI (RPMI-8226 leukemia): 599 µM
GI50 (RXF 393 renal): > 94.8 µM
TGI (RXF 393 renal): 118 µM
GI50 (SF-268 CNS): 85.6 µM
TGI (SF-268 CNS): 249 µM
GI50 (SF-295 CNS): 43.1 µM
TGI (SF-295 CNS): 121 µM
GI50 (SF-539 CNS): 30.4 µM
TGI (SF-539 CNS): > 78.2 µM and 63.5 µM
TGI (SK-MEL-2 melanoma): 119 µM
GI50 (SK-MEL-28 melanoma): > 93.9 µM
TGI (SK-MEL-28 melanoma): 300 µM
GI50 (SK-MEL-5 melanoma): > 56.6 µM
TGI (SK-MEL-5 melanoma): 87.7 µM
TGI (SK-OV-3 ovarian): 70.5 µM
TGI (SN12C renal): 335 µM
TGI (SN12K1 renal): 92.4 µM
TGI (SNB-19 CNS): 324 µM
GI50 (SNB-75 CNS): 56.9 µM
TGI (SNB-75 CNS): 57.2 µM
TGI (SNB-78 CNS): 140 µM
GI50 (SR leukemia): 1.15 µM
TGI (SW-620 colon): 321 µM
GI50 (T-47D breast): 87.6 µM
TGI (T-47D breast): 557 µM
TGI (TK-10 renal): 363 µM
GI50 (U251 CNS): 18.2 µM
TGI (U251 CNS): 96.3 µM
GI50 (UACC-257 melanoma): > 63.8 µM
TGI (UACC-257 melanoma): 153 µM
GI50 (UACC-62 melanoma): 12 µM
TGI (UACC-62 melanoma): > 78.7 µM and 20.9 µM
TGI (UO-31 renal): 134 µM
TGI (XF 498 CNS): 47.1 µM
